The results in this text go back to patent US8003331B2, “Method for identifying target protein of drug and method for screening therapeutic agent for diabetes using the target protein” (Astellas Pharma Inc., priority 2005, dated 2011).

SMILES strings stand for the structures. “Also recorded” adds a separate entry of the source.

For one data set, the system named is TNF-α. Briefly: TNF-α gene expression in HeLa S3 cell (real time PCR, corrected by β-actin). It counts as cell-based, human. The note with it: okadaic acid 50 nM. Here is the method:
The pcDNA-TARDBP or an empty vector (pcDNA3.1) (Invitrogen) was transferred into HeLa S3 cell. Illustratively, the HeLa S3 cell (ATCC) was firstly cultured in a 12 well culture plate until it reached a state of 70% confluent, by adding 1 ml of a minimum essential medium DMEM (Gibco) containing 10% fetal bovine serum (Sigma) to each well of the culture plate. The medium was substituted by 0.5 ml per well of a serum-free medium OPTI MEM I (Invitrogen), and 0.8 μg/well of the pcDNA-TARDBP or pcDNA3.1 was transiently transferred using Lipofect amine 2000 (Invitrogen). After 12 hours of the culturing, this was substituted by 1 ml/well of DMEM containing 10% of fetal bovine serum and further cultured for 12 hours. This was further cultured for 16 hours under a condition of adding or not adding okadaic acid (Wako Pure Chemical Industries) to a final concentration of 50 nM. In this case, […] was added a part of the cells simultaneously with the okadaic acid treatment. The medium was discarded, the cells were washed twice with ice-cooled PBS, and then these cells were frozen and stored at −80° C.
Total RNA was prepared from each cell frozen in the aforementioned Example 9(2), using a reagent for RNA extraction use (Isogen; Nippon Gene) and in accordance with the instructions attached thereto. The thus prepared each total RNA was then treated with a deoxyribonuclease (Nippon Gene), subjected to phenol/chloroform treatment and ethanol precipitation and dissolved in sterile water. Using 1 μg of this total RNA, its reverse transcription into a single-stranded cDNA was carried out in a system of 20 μl using a kit for reverse transcription reaction use (Advantage™ RT-for-PCR Kit; Clontech).
Six oligonucleotides (SEQ ID NO:97 to SEQ ID NO:102) were designed and synthesized as primers of PCR for the measurement of gene expression quantity. A combination of SEQ ID NO:97 and SEQ ID NO:98 was used for human β-actin gene, and a combination of SEQ ID NO:99 and SEQ ID NO:100 for human TNF-α gene, and a combination of SEQ ID NO:101 and SEQ ID NO:102 for human TARDBP gene, respectively. […]
The expression quantities of human TNF-α gene and human TARDBP gene in each sample were corrected by the expression quantity of β-actin gene based on the following equation. [Corrected expression quantity of TNF-α or TARDBP]=[expression quantity of TNF-α or TARDBP gene (raw data)/[expression quantity of β-actin gene (raw data)]
In comparing the expression quantities of TNF-α and TARDBP genes, relative amounts were calculated by regarding the expression quantity in a cell, into which an empty vector (pcDNA3.1) was transferred and which was treated only with the solvent (DMSO), as 100, with the results sown in FIG. 9 and FIG. 10. […]

Data set [1] deals with T1, human ATP5B (Homo sapiens, UniProt P06576).
T1 construct: an attempt was made to amplify complete length cDNA of human ATP5B; made in house; host or cells: cell-free: TNT Quick Coupled Transcription/Translation System (Promega) from pcDNA-ATP5B; GST-DHFR from E. coli BL21
Briefly: GST-DHFR / MTX-phenformin GST pull-down of 35S-labeled ATP5B. Type of data set: binding. On the procedure:
Promega) and 0.74 MBq of a radioisotope (redivue Pro-mix L-[35S]; Amersham) and in accordance with the protocols attached thereto. A 15 μl portion of this human ATP5B protein preparation liquid and 1 μg for each of the GST protein or GST-DHFR, purified on the glutathione Sepharose beads, were mixed and shaken at 4° C. for 1 hour after adding 0.3 ml of buffer A thereto. Thereafter, the protein binding to the GST protein or GST-DHFR on beads was co-precipitated by centrifugation. After repeating this operation 4 times, proteins in the precipitate were separated by SDS polyacrylamide gel electrophoresis in accordance with a conventionally known method, and the protein bound to the probe was detected by an autoradiography.

The subject of a further data set is AMPK. Briefly: AMPK activation ability detection in HeLa S3 cell (anti-phospho AMPK western blotting). It counts as cell-based, human. As to conditions: phenformin 1 mM, 1 hr; for activation of AMPK in cell over-expressing human ATP5B: pcDNA-ATP5B-transferred HeLa S3 cell, metformin 10 mM; for phosphorylation level (activation) of AMPK: HeLa S3 cell without ATP5B over-expression (empty vector- or pcDNA-LKB1-transferred), concentration of compounds A and B not given. On the procedure: This expression plasmid pcDNA-LKB1 and the pcDNA-ATP5B prepared in the aforementioned Example 5(1) or an empty vector (pcDNA3.1) (Invitrogen) were transferred into HeLa S3 cell. The HeLa S3 cell (ATCC) was cultured in a 6 well culture plate (35 mm in well diameter) until it reached a state of 70% confluent, by adding 2 ml of a minimum essential medium DMEM (Gibco) containing 10% fetal bovine serum (Sigma) to each well of the culture plate. The medium was substituted by 1 ml per well of a serum-free medium OPTI MEM I (Invitrogen), and 3.0 μg/well of each of the empty vector (pcDNA3.1), pcDNA-LKB1 and pcDNA-ATP5B was transiently transferred using Lipofect amine 2000 (Invitrogen). After 12 hours of the culturing, this was substituted by 2 ml/well of DMEM containing 10% of fetal bovine serum from which low molecular substances had been removed by a charcoal treatment, and further cultured for 36 hours. This was further cultured for 1 hour (1 hr) under a condition of adding phenformin (Sigma) to a final concentration of 1 mM or the solvent (DMSO) alone. The medium was discarded, the cells were washed with a phosphate buffer (to be referred to as PBS hereinafter, and then the cells were lysed by adding 0.15 ml of the aforementioned buffer A (however, the NaCl concentration was 150 mM, and various phosphatase inhibitors; 2 mM Na3VO4, 10 mM NaF, 25 mM β-glycerophosphate, 0.2 mM Na2MoO4, 20 nM okadaic acid, were added). The activity of AMPK in the cells was detected at the level of phosphorylation of molecules by a conventionally known SDS electrophoresis and a western blotting which uses an anti-phosphorylation AMPK antibody (Phospho-AMPK-α(Thr172) Antibody, Daiichi Pure Chemicals). In this case, in order to confirm that there is no difference in the amount of protein of AMPKα (an AMPK subunit which undergoes phosphorylation) among samples, a western blotting which uses an anti-AMPKα antibody (Daiichi Pure Chemicals) was simultaneously carried out. […] However, in the cell in which human ATP5B was expressed by transferring pcDNA-ATP5B, activation of AMPK by phenformin treatment was not found.

A further data set concerns db/db mouse. Briefly: blood sugar level and blood lactic acid level in db/db mouse after intraperitoneal administration. Type of data set: in vivo. The note with it: db/db mice, fasting, metformin 300 mg/kg; for blood lactic acid level: compound 100 mg/kg, 0, 90, 180 minutes; for hypoglycemic action (blood sugar level): compound 100 mg/kg, 90 and 180 minutes, vs vehicle group. From the text:
As described in the aforementioned Example 6, the compound A and compound B found by the screening method of the present invention have the ability to activate AMPK in cells. Next, whether or not these compounds have the in vivo hypoglycemic action similar to the case of biguanide was examined. At the same time, action of the aforementioned 2 compounds on the increase of blood lactic acid value as an adverse side effect of biguanide was also examined. A total of 15 animals of 11 weeks of age of db/db mouse (BKS.Cg-+Leprdb/+Leprdb/Jcl; CLEA Japan) as a diabetes model mouse were divided into 3 groups, each consisting of 5 animals. […] They were subjected to fasting at the same time with the administration, and blood samples were collected from the tail of each animal 0 minute, 90 minutes and 180 minutes thereafter to measure blood sugar level and blood lactic acid level. The blood sugar level was measured using a simplified blood sugar analyzer (Acu Check Active II; Roche), and the blood lactic acid level was measured using a simplified lactic acid analyzer (Lactate Pro; Arkray Marketing), respectively. In the same manner, 12 animals of the db/db mouse of 18 weeks of age were divided in 3 groups, 4 animals for each. […] In the same manner as the above, they were subjected to fasting at the same time with the administration, and the blood sugar level and blood lactic acid level were respectively measured 0 minute, 90 minutes and 180 minutes thereafter in the same as described in the above.

The target of data set [2] is T1, human ATP5B. Briefly: competitive inhibition of binding of ATP5B and MTX-phenformin. As to conditions: MTX-phenformin 10 μM; free phenformin 10 μM; compounds A and B 'addition of 10'.

In the case of `C=C1[C@@H](O)[C@@H]2O[C@]3(CC[C@H](/C=C/[C@@H](C)[C@@H]4CC(C)=C[C@@]5(O[C@H](C[C@@](C)(O)C(=O)O)CC[C@H]5O)O4)O3)CC[C@H]2O[C@@H]1[C@@H](O)C[C@H](C)[C@H]1O[C@@]2(CCCCO2)CC[C@H]1C` [okadaic acid], in the data set with TNF-α (TARDBP high expression cell, compared with control cell), the “action to accelerate expression of TNF-α” value is “almost the same”. Further, the “increase of expression of TNF-α” value with TNF-α (control cell (empty vector HeLa S3), 16 hours) is listed as “up to 80 times”.
For `CN(Cc1cnc2nc(N)nc(N)c2n1)c1ccc(C(=O)N[C@@H](CCC(=O)NCCCNC(=N)NC(=N)N)C(=O)O)cc1.Cl.Cl` [MTX-phenformin, (2S)-5-[(3-{[{[amino(imino)methyl]amino}(imino)methyl]amino}propyl)amino]-2-({4-[[(2,4-diaminopteridin-6-yl)methyl](methyl)amino]benzoyl}amino)-5-oxopentanonic acid dihydrochloride], the “binding with human ATP5B (band of about 60 kDa, autoradiography)” value on human ATP5B [1] (10 μM MTX-phenformin fixed to GST-DHFR, wild type ATP5B) is reported as “detected in the form of binding to the GST-DHFR, only under the condition of adding the MTX-phenformin”. Also, the “binding to the ATP5B protein with increasing concentration” value on human ATP5B [1] (MTX-phenformin 1.0, 10, 100 μM) was “clearly detected”.
`CN(C)C(=N)N=C(N)N` [metformin]: the “activation of AMPK in cell over-expressing human ATP5B” value in the data set with AMPK was “not found”. In the data set with db/db mouse, the “blood lactic acid level” value is given as “significant increase” and the “hypoglycemic action (blood sugar level)” value is given as “significant hypoglycemic action”.
Take `Oc1ccccc1/C=N/c1nc[nH]n1` [compound A, 2-[(E)-(1H-1,2,4-triazol-3-ylimino)methyl]phenol]: in the data set on AMPK, the “phosphorylation level (activation) of AMPK” value was “significant AMPK activation ability” and the “activation of AMPK in cell over-expressing human ATP5B” value is given as “disappeared”. Also, the “influence on binding of ATP5B and MTX-phenformin” value at human ATP5B [2] is “obstruct binding of ATP5B and MTX-phenformin”. Further, in the data set with db/db mouse, the “blood lactic acid level” value is “did not induce increase; also recorded: without causing in vivo accumulation of lactic acid”; the “hypoglycemic action (blood sugar level)” value is “hypoglycemic action after 90 minutes and 180 minutes having a significant difference; also recorded: show hypoglycemic action”.
With `Nc1nc(Cl)c2nc[nH]c2n1` [compound B, 6-chloro-9H-purine-2-amine], in the data set on AMPK, the “phosphorylation level (activation) of AMPK” value is “significant AMPK activation ability” and the “activation of AMPK in cell over-expressing human ATP5B” value is reported as “disappeared”. Besides, on human ATP5B [2], the “influence on binding of ATP5B and MTX-phenformin” value was “obstruct binding of ATP5B and MTX-phenformin”. The “hypoglycemic action (blood sugar level)” value in the data set with db/db mouse was “hypoglycemic action after 90 minutes and 180 minutes having a significant difference; also recorded: show hypoglycemic action”.
